Data reported in the Kinase Knowledgebase extract (Sharma et al. 2016).
pIC50: −log10 of the molar value.

molecular target: MAPK14 (human) (UniProt Q16539); assay: Assessment of MAPK14 Kinase Activity
Sequence (Q16539 whole entry, looked up): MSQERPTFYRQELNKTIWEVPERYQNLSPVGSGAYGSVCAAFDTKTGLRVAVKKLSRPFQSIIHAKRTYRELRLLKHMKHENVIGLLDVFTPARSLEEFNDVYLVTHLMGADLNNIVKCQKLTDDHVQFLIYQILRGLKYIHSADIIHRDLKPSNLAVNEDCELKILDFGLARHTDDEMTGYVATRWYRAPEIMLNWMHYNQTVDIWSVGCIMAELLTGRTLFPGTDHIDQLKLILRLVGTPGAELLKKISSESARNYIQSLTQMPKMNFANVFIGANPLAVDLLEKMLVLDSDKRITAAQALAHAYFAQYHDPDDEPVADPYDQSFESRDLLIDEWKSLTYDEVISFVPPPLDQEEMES

| Structure (SMILES) | pIC50 |
| --- | --- |
| CCOC(=O)c1sc2c(ccc(=O)n2-c2ccccc2)c1Cc1ccccc1 | ≥ 6.00 |
| CCOC(=O)c1sc2c(ccc(=O)n2-c2ccccc2)c1C(O)c1cccc(Cl)c1 (centres undefined) | ≥ 6.00 |
| N#Cc1sc2c(ccc(=O)n2-c2ccccc2)c1C(O)c1ccccc1 (centres undefined) | ≥ 6.00 |
| CCOC(=O)c1sc2c(ccc(=O)n2-c2ccccc2)c1N(C)Cc1ccccc1 | ≥ 6.00 |
| CCOC(=O)c1sc2c(ccc(=O)n2-c2ccccc2)c1NCc1ccccc1 | ≥ 6.00 |
| CCOC(=O)c1sc2c(ccc(=O)n2-c2ccccc2)c1NCc1ccccn1 | ≥ 6.00 |
| CCOC(=O)c1sc2c(ccc(=O)n2-c2ccccc2)c1C(O)c1cccc(C)c1 (centres undefined) | ≥ 6.00 |
| CCOC(=O)c1sc2c(ccc(=O)n2-c2ccccc2)c1NS(=O)(=O)c1ccccc1 | ≥ 6.00 |
| CCOC(=O)c1sc2c(ccc(=O)n2-c2ccccc2)c1Sc1ccccc1 | ≥ 6.00 |
| CCOC(=O)c1sc2c(ccc(=O)n2-c2ccccc2)c1C(O)c1ccccc1 (centres undefined) | ≥ 6.00 |
| CCOC(=O)c1sc2c(ccc(=O)n2-c2ccccc2)c1Sc1cccc(C)c1 | ≥ 6.00 |
| CCOC(=O)c1sc2c(ccc(=O)n2-c2ccccc2)c1CCc1ccccc1 | ≥ 6.00 |
| CCOC(=O)c1sc2c(ccc(=O)n2-c2ccccc2)c1NCc1c(F)cccc1F | ≥ 6.00 |
| CCOC(=O)c1sc2c(ccc(=O)n2CC2CC2)c1C(O)c1ccccc1 (centres undefined) | ≥ 6.00 |
| CCOC(=O)c1sc2c(ccc(=O)n2-c2ccccc2)c1NC(C)c1ccccc1 (centres undefined) | ≥ 6.00 |
| NC(=O)c1sc2c(ccc(=O)n2-c2ccccc2)c1Sc1ccccc1 | ≥ 6.00 |
| CCOC(=O)c1sc2c(ccc(=O)n2-c2ccccc2)c1NNc1ccc(C)cc1 | ≥ 6.00 |
| CCOC(=O)c1sc2c(ccc(=O)n2-c2ccccc2)c1S(=O)(=O)Nc1ccccc1 | ≥ 6.00 |
| CCOC(=O)c1sc2c(ccc(=O)n2-c2ccccc2)c1Oc1ccccc1 | ≥ 6.00 |
| Cc1cccc(C(O)c2c(C#N)sc3c2ccc(=O)n3-c2ccccc2)c1 (centres undefined) | ≥ 6.00 |
| CCOC(=O)c1sc2c(ccc(=O)n2-c2ccccc2)c1NC(=O)c1ccccc1 | ≥ 6.00 |
| CCOC(=O)c1sc2c(ccc(=O)n2-c2ccccc2)c1NC(=O)c1ccc(N)cc1 | ≥ 6.00 |
| N#Cc1sc2c(ccc(=O)n2-c2ccccc2)c1NCc1ccccc1 | ≥ 6.00 |
| CCOC(=O)c1sc2c(ccc(=O)n2-c2ccccc2)c1C(O)c1cccc(C)n1 (centres undefined) | ≥ 6.00 |
